Assay results reported in patent US6472166B1, “Method for determining the effects of a growth-altering agent on a microbial colony” (Wardlaw Partners LP, priority 2000, dated 2002).

Tests used:
Type in all cases: cell-based
E. coli = experiment: Microcolony growth imaging of E. coli on Kirby-Bauer type growth medium; conditions: 2 μg/ml, two-hour incubation, E. coli microcolonies, FIG. 2D
Procedure: (§1) FIGS. 2A-2D, 3A-3D, and 4A-4D show digital images of various microorganisms exposed to different growth-altering agents. Here again, the images contained in panels “A” and “B” of each FIGURE were taken immediately after inoculation, and the images contained in panels “C” and “D” of each FIGURE were taken after about two hours of incubation. None of the images in FIGS. 2A-2D, 3A-3D, and 4A-4D are enhanced by digital processing. The images contained in panels “B” and “D” of each FIGURES show regions of the growth medium that have been exposed to a growth-altering agent. The images contained in panels “A” and “C” of each FIGURE have not been exposed to a growth-altering agent and can be used as control reference areas.
The images contained in FIGS. 2A and 2B show regions of a Kirby-Bauer type growth medium immediately after inoculation with E. coli. The images contained in FIGS. 2C and 2D show the same regions after a two-hour incubation period. […] If it is desired to find the threshold of microbial sensitivity, such as is done to determine the minimum inhibitory concentration (MIC), then a series of separate regions each containing a certain concentration of the growth-altering agent may be used and the relative growth in each separate region evaluated. […]

E. faecium = experiment: Microcolony growth imaging of E. faecium on Kirby-Bauer type growth medium; conditions: 2 μg/ml, two-hour incubation, E. faecium microcolonies, FIG. 4D
Procedure: as §1
The images contained in FIGS. 4A and 4B show regions of a Kirby-Bauer type growth medium immediately after inoculation with E. faecium. The images contained in FIGS. 4C and 4D show the same regions after a two-hour incubation period.

E. faecalis = experiment: Microcolony growth imaging of E. faecalis on Kirby-Bauer type growth medium; conditions: 2 μg/ml, two-hour incubation, E. faecalis microcolonies, FIG. 3D
Procedure: as §1
The images contained in FIGS. 3A and 3B show regions of a Kirby-Bauer type growth medium immediately after inoculation with E. faecalis. The images contained in FIGS. 3C and 3D show the same regions after a two-hour incubation period.

CO/N=C(\C(=O)N[C@@H]1C(=O)N2C(C(=O)O)=C(COC(C)=O)CS[C@H]12)c1csc(N)n1 [cefotaxime]
microcolony perimeter/area ratio characteristic (E. coli): increased perimeter/area ratio characteristic

CN[C@H](CC(C)C)C(=O)N[C@H]1C(=O)N[C@@H](CC(N)=O)C(=O)N[C@H]2C(=O)N[C@H]3C(=O)N[C@H](C(=O)N[C@H](C(=O)O)c4cc(O)cc(O)c4-c4cc3ccc4O)[C@H](O)c3ccc(c(Cl)c3)Oc3cc2cc(c3O[C@@H]2O[C@H](CO)[C@@H](O)[C@H](O)[C@H]2O[C@H]2C[C@](C)(N)[C@H](O)[C@H](C)O2)Oc2ccc(cc2Cl)[C@H]1O [vancomycin]
microcolony growth (E. faecium): show detectable growth
microcolony growth (E. faecalis): do not appear to exhibit any growth
